The record followed here is patent US3960667A, “Antibiotic A23187 and process for preparation thereof” (priority 1975, dated 1976).

A short description of one data set: Solubility. Type of data set: physicochemical.
The subject of data set [1] is Streptococcus faecalis 80. The experiment in a line: Antibiotic activity, broth dilution. It counts as cell-based. The following applies: Enterococcus faecalis, broth dilution (bd), read-out: Minimum inhibitory concentration. From the text:
(§1) The novel antibiotic of this invention has an inhibitory action against the growth of microbial organisms, both bacteria and fungi, which are pathogenic to animal and plant life and is therefore useful in suppressing the growth of such organisms. The antibiotic A23187 is useful in wash solutions for sanitation purposes, as in the cleaning of equipment, floors or furnishings of contaminated rooms or laboratories. For such purposes, the antibiotic, or a salt thereof, is conveniently formulated as a solution in one of the lower chlorinated hydrocarbons, as for example, chloroform. […] The preparation of such formulations is readily accomplished by methods known in the art. The antibiotic can be employed in a wide range of concentrations. Because of its relatively high activity, concentratons of 100 to 500 parts per million are generally adequate for most purposes. The letters bd refer to broth dilution and the letters ad refer to agar dilution.
A general note: Dilution methods test growth across graded concentrations, often in twofold steps.

For data set [2], the system named is Staphylococcus aureus 3055. In words: Antibiotic activity, broth dilution. The note with it: broth dilution (bd), read-out: Minimum inhibitory concentration. Type of data set: cell-based.
Excerpt: as §1

For data set [3], the system named is Staphylococcus aureus 1130. The experiment in a line: Antibiotic activity, broth dilution. It counts as cell-based. The following applies: broth dilution (bd), read-out: Minimum inhibitory concentration.
Excerpt: as §1

The test system of another data set is Erysipelas insidiosa. The experiment in a line: Antibiotic activity, broth dilution. It counts as cell-based. The following applies: broth dilution (bd), read-out: Minimum inhibitory concentration.
Excerpt: as §1

The next data set has as its system Pasteurella hemolytica. The experiment in a line: Antibiotic activity, broth dilution. Type of data set: cell-based. The note with it: broth dilution (bd), read-out: Minimum inhibitory concentration.
Excerpt: as §1

The next data set relates to Mycoplasma gallisepticum. In words: Antibiotic activity, broth dilution. It counts as cell-based. The note with it: Mycoplasmoides gallisepticum, broth dilution (bd), read-out: Minimum inhibitory concentration.
Excerpt: as §1

For a further data set, the system named is Pasteurella multocida. The experiment in a line: Antibiotic activity, broth dilution. The note with it: broth dilution (bd), read-out: Minimum inhibitory concentration. Type of data set: cell-based.
Excerpt: as §1

Data set [4] can be described thus: Affinity for divalent cations (complex formation). It counts as binding. An excerpt:
Another characteristic feature of A23187 is its ability to form complexes with certain divalent cations. In experiments to determine the affinity of A23187 for such cations, the following order of reactivity is seen: […]

The nature of the next data set: Acute toxicity in mice. The following applies: mouse, in vivo, ip, administered intraperitoneally. The protocol: The acute toxicity of antibiotic A23187 in mice, expressed as LD50, is about 10 mg/kg of body weight when the antibiotic is administered intraperitoneally.
The subject of the next data set is Mycobacterium avium. In words: Antibiotic activity, agar dilution. The following applies: agar dilution (ad), read-out: Minimum inhibitory concentration. It counts as cell-based.
Excerpt: as §1
A general note: In agar dilution the substance is mixed into plates at graded concentrations.

The next data set has as its system Botrytis cinerea. In words: Antibiotic activity, agar dilution. It counts as cell-based. The following applies: agar dilution (ad), read-out: Minimum inhibitory concentration.
Excerpt: as §1

The subject of data set [5] is Saccharomyces pastorianus. In words: Antibiotic activity, agar dilution. It counts as cell-based. The following applies: agar dilution (ad), read-out: Minimum inhibitory concentration.
Excerpt: as §1

Data set [6] has as its system Trichophyton mentagrophytes. The experiment in a line: Antibiotic activity, agar dilution. Type of data set: cell-based. The following applies: agar dilution (ad), read-out: Minimum inhibitory concentration.
Excerpt: as §1

For the next data set, the system named is Helminthosporium sativum. In words: Antibiotic activity, agar dilution. It counts as cell-based. The note with it: agar dilution (ad), read-out: Minimum inhibitory concentration.
Excerpt: as §1

In a further data set the test system is Glomerella cingulata. In words: Antibiotic activity, agar dilution. The following applies: Colletotrichum gloeosporioides, agar dilution (ad), read-out: Minimum inhibitory concentration. It counts as cell-based.
Excerpt: as §1

For the next data set, the system named is Cladosporium resinae. In words: Antibiotic activity, agar dilution. The following applies: Amorphotheca resinae, agar dilution (ad), read-out: Minimum inhibitory concentration. Type of data set: cell-based.
Excerpt: as §1

For a further data set, the system named is Pullularia sp. In words: Antibiotic activity, agar dilution. Type of data set: cell-based. The following applies: agar dilution (ad), read-out: Minimum inhibitory concentration.
Excerpt: as §1

A further data set concerns Penicillium expansum. In words: Antibiotic activity, agar dilution. It counts as cell-based. The following applies: agar dilution (ad), read-out: Minimum inhibitory concentration.
Excerpt: as §1

The next data set deals with Ceratostomella ulmi. The experiment in a line: Antibiotic activity, agar dilution. It counts as cell-based. The note with it: Ophiostoma ulmi, agar dilution (ad), read-out: Minimum inhibitory concentration.
Excerpt: as §1

The test system of another data set is Leuconostoc citrovorum. The experiment in a line: Antibiotic activity, agar dilution. The note with it: agar dilution (ad), read-out: Minimum inhibitory concentration. It counts as cell-based.
Excerpt: as §1

A further data set relates to Colletotrichum pisi. In words: Antibiotic activity, agar dilution. Type of data set: cell-based. The following applies: agar dilution (ad), read-out: Minimum inhibitory concentration.
Excerpt: as §1

In a further data set the test system is Lactobacillus casei. In words: Antibiotic activity, agar dilution. It counts as cell-based. The following applies: Lacticaseibacillus casei, agar dilution (ad), read-out: Minimum inhibitory concentration.
Excerpt: as §1

A further data set concerns Bacillus subtilis. The experiment in a line: Antibiotic activity, agar dilution. It counts as cell-based. The note with it: agar dilution (ad), read-out: Minimum inhibitory concentration.
Excerpt: as §1

The subject of another data set is Candida albicans. In words: Antibiotic activity, agar dilution. Type of data set: cell-based. The following applies: agar dilution (ad), read-out: Minimum inhibitory concentration.
Excerpt: as §1

The nature of the next data set: Electrometric titration. The note with it: 90% dimethylsulfoxide; electrometric titration in 90 percent dimethylsulfoxide. It counts as physicochemical. On the procedure:
The molecular weight, calculated from titration data, is approximately 550. A23187 is optically active, having a specific rotation, [α]D^25, of […], at a concentration of 1% in chloroform.

In brackets after ≈: the same amount, converted by molar mass. Structures can show the parent of a compound that is named as a salt.

The LD50 is the dose at which mortality reaches 50%. A low value points to a more toxic substance. As for `CNc1ccc2oc(C[C@H]3O[C@@]4(CC[C@H]3C)O[C@H]([C@H](C)C(=O)c3ccc[nH]3)[C@H](C)C[C@H]4C)nc2c1C(=O)O` [Antibiotic A23187], in the data set “Solubility”, the solubility in water result was “relatively insoluble in water”. Moreover, the MIC in data set [1] was 0.097 µg/mL (≈ 0.185 µM); in data set [2], 0.78 µg/mL (≈ 1.49 µM); in [3] it was 0.048 µg/mL (≈ 0.0917 µM); in the data set on Erysipelas insidiosa, < 0.048 µg/mL; in the data set on Pasteurella hemolytica, 12.5 µg/mL (≈ 23.9 µM); in the data set with Mycoplasma gallisepticum, 1.56 µg/mL (≈ 2.98 µM). The MIC turned out to be 0.39 µg/mL (≈ 0.745 µM) with Pasteurella multocida; 0.4 µg/mL (≈ 0.764 µM) in the data set with Mycobacterium avium; 1.56 µg/mL (≈ 2.98 µM) with Botrytis cinerea; 1.56 µg/mL (≈ 2.98 µM) in data set [5]; 0.78 µg/mL (≈ 1.49 µM) in [6]; 25 µg/mL (≈ 47.7 µM) with Helminthosporium sativum. For the same molecule, the MIC is 100 µg/mL (≈ 191 µM) with Glomerella cingulata; 6.25 µg/mL (≈ 11.9 µM) in the data set with Cladosporium resinae; 1.56 µg/mL (≈ 2.98 µM) with Pullularia sp.; 6.25 µg/mL (≈ 11.9 µM) in the data set on Penicillium expansum; 6.25 µg/mL (≈ 11.9 µM) in the data set with Ceratostomella ulmi; 0.2 µg/mL (≈ 0.382 µM) in the data set on Leuconostoc citrovorum. Also, the MIC with Colletotrichum pisi stood at 6.25 µg/mL (≈ 11.9 µM); with Lactobacillus casei, 0.78 µg/mL (≈ 1.49 µM); in the data set on Bacillus subtilis, 0.2 µg/mL (≈ 0.382 µM); with Candida albicans, 25 µg/mL (≈ 47.7 µM). In data set [4], the “affinity for Be^+^+” value is “moderate affinity”. The “affinity for Cd^+^+” value in data set [4] is reported as “appreciable affinity”. Moreover, in data set [4], the “affinity for Co^+^+” value is “moderate affinity”. Further, the “affinity for Hg^+^+” value in [4] was “no apparent affinity”. Also, in data set [4], the “affinity for Ni^+^+” value is “moderate affinity”. Also, the “affinity for Zn^+^+” value in data set [4] was “moderate affinity”. In addition, the “order of reactivity (affinity) for divalent cations” value in data set [4] (Mn, Ca, Mg, Sr, Ba cations) is listed as “Mn^+^+ >> Ca^+^+ = Mg^+^+ > Sr^+^+ > Ba^+^+”. In addition, the “ionophorous properties, specificity” value in [4] (divalent cations) is “high specificity for divalent cations”. Moreover, the 50% lethal dose (LD50) in the data set “Acute toxicity in mice” was ~10 mg/kg.
Broadly, the pKa is the negative logarithm of the acid dissociation constant. Low readings indicate a group that gives up its proton readily, high ones a group that holds its proton tightly. Molecule `CNc1ccc2oc(CC3OC4(CCC3C)OC(C(C)C(=O)c3ccc[nH]3)C(C)CC4C)nc2c1C(=O)O` (stereo not drawn) [mixed calcium-magnesium salt of A23187] showed a pKa in “Electrometric titration” of 6.9. The “solubility in the lower alkyl ketones” value in “Solubility” (acetone, methylethyl ketone, diethyl ketone and the like) is “very soluble”. The “solubility in the lower alcohols” value in the data set “Solubility” (methanol, ethanol, isopropanol and the like) was “very slightly soluble”. Further, in “Solubility” (methyl acetate, ethyl acetate, methyl propionate, amyl acetate, methyl butyrate and the like), the “solubility in esters formed with the lower alkyl carboxylic acids and lower alcohols” value was “very soluble”. For the same molecule, in the data set “Solubility” (methylene chloride, chloroform, dichloroethane and the like), the “solubility in the lower alkyl chlorinated hydrocarbons” value is “very soluble”. Also, the solubility in hydrocarbons result in the data set “Solubility” (pentane, hexane, heptane and the like) is reported as “insoluble”. Besides, the solubility in water result in “Solubility” is “insoluble”.
